Data set [1] is described as follows: X-ray powder diffraction after two DVS cycles (polymorph stability to humidity). It counts as physicochemical. On the procedure:
FIG. 5: The x-ray powder diffractogram of the ozanimod base Form I form after two DVS cycles (see example 6).
The x-ray powder diffraction measurements were performed as follows:
Device: PANalytical Empyrean x-ray powder diffractometer Measurement alignment: Transmission
Type: Empyrean long fine focussing, high resolution tube
Divergence slit: Fixed slit 1/2° Mirror: Focussing elliptical mirror Soller slit: 0.04 rad Diffusion inhibitor slit: Fixed slit 1/2°
Diffusion inhibitor slit: Programmable slit in fixed mode: 1/2° Soller slit: 0.04 rad
Type: Reflection-transmission, with rotatable sample holders Sample rotation speed: 1 rotation/second Direct beam catcher (“beam knife”): Transmission
Type: PIXcel 3D 1×1 area detector Operation mode: Scanning line detector (ID) operation mode Active detector window size: 3.3473° Sample preparation: samples placed between two Mylar sheets, without pulverising
Temperature: room temperature Accelerating voltage: 45 kV Anode heating current: 40 mA Scanning method: continuous (θ/θ) scanning Measurement range: 2.0000-34.9964° 2θ
Step duration: 109.650 seconds No of measurement cycles: 1 Measurement duration: ˜20 minutes

The nature of data set [2]: Dynamic vapour sorption (DVS) measurement. It counts as physicochemical. To be noted: 25° C. Here is the method: Dynamic Vapour Sorption (DVS)
Device: TA Q5000SA dynamic vapour sorption analyser (DVS) Atmosphere: Flowing nitrogen Carrier gas flow rate: 200 mL/min N2
Balance house flow rate: 10 mL/min N2 Temperature maintained • 35° C. in balance house: Crucible type: Platinum 100 μl, open Measuring method: Custom
Measuring temperature: 25° C., isotherm Measurement range: Between 0% and 95% RH Initial relative humidity: 20% RH Measurement phases: Desorption-adsorption-desorption Step size: 5% RH Mass constant criterion: ≤0.01% for 5 minutes Maximum step length: 360 minutes Sampling frequency: 5 sec/point Number of cycles: 2
The dynamic vapour sorption (DVS) measurement of the ozanimod base Form I polymorph according to example 6

Consider `CC(C)Oc1ccc(-c2nc(-c3cccc4c3CC[C@@H]4NCCO)no2)cc1C#N` [ozanimod base Form I polymorph, ozanimod], for which the “stability of the polymorph form / sensitivity to humidity” value in data set [1] (25° C.) is “stable at 25° C., and not sensitive to humidity”. In data set [1] (according to applicant's tests), the “influence of the humidity of the air on the stability of the crystals” value is reported as “does not influence the stability of the crystals” and the “polymorphic nature under air humidity” value is “does not change”. In addition, in data set [1] (after two DVS cycles, 25° C., 0-95% RH), the “crystal structure after the two DVS cycles (x-ray powder diffractogram, FIG. 5 vs FIG. 3)” value is “unchanged”. For the same compound, the hygroscopicity result in data set [2] (DVS, 0-95% RH) is recorded as “slightly hygroscopic”. The “sorption isotherm on repeating the cycle” value in data set [2] (second DVS cycle) is listed as “did not change”. The “mass increase of the sample” value in data set [2] (under 95% relative humidity, first cycle) is on record as 0.6%.

These data come from patent US20200087269A1, “PROCESS FOR THE PRODUCTION OF OZANIMOD” (EGIS GYOGYSZERGYAR ZRT., priority 2017, published 2020).
